Assay results as given in PubChem BioAssay (NCI).
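Assay format: 96-well plates, 48-hour exposure. The concentration for 50% growth inhibition is given as GI50. Definition used: TGI = concentration required for complete inhibition of growth.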

Columns and labels:
Experiment in all cases: NCI tumour cell line growth inhibition, 48 h
[1] = test system: A498 renal
[2] = test system: A549 NSCLC
[3] = test system: CAKI-1 renal
[4] = test system: CCRF-CEM leukemia
[5] = test system: COLO 205 colon
[6] = test system: DLD-1 colon
[7] = test system: DMS 273 small cell lung
[8] = test system: EKVX NSCLC
[9] = test system: HCC-2998 colon
[10] = test system: HCT-116 colon
[11] = test system: HCT-15 colon
[12] = test system: HL-60(TB) leukemia
[13] = test system: HOP-18 NSCLC
[14] = test system: HOP-62 NSCLC
[15] = test system: HOP-92 NSCLC
[16] = test system: HT29 colon
[17] = test system: IGROV1 ovarian
[18] = test system: K-562 leukemia
[19] = test system: KM12 colon
[20] = test system: KM20L2 colon
[21] = test system: LOX IMVI melanoma
[22] = test system: M19-MEL melanoma
[23] = test system: MALME-3M melanoma
[24] = test system: MCF7 breast
[25] = test system: NCI-H226 lung
[26] = test system: NCI-H23 lung
[27] = test system: NCI-H460 lung
[28] = test system: NCI-H522 lung
[29] = test system: NCI/ADR-RES ovarian
[30] = test system: OVCAR-3 ovarian
[31] = test system: OVCAR-4 ovarian
[32] = test system: OVCAR-5 ovarian
[33] = test system: OVCAR-8 ovarian
[34] = test system: P388 leukemia
[35] = test system: P388/ADR leukemia
[36] = test system: RPMI-8226 leukemia
[37] = test system: RXF 393 renal
[38] = test system: SF-268 CNS
[39] = test system: SF-295 CNS
[40] = test system: SF-539 CNS
[41] = test system: SK-MEL-2 melanoma
[42] = test system: SK-MEL-28 melanoma
[43] = test system: SK-MEL-5 melanoma
[44] = test system: SK-OV-3 ovarian
[45] = test system: SN12C renal
[46] = test system: SN12K1 renal
[47] = test system: SNB-19 CNS
[48] = test system: SNB-75 CNS
[49] = test system: SNB-78 CNS
[50] = test system: SW-620 colon
[51] = test system: U251 CNS
[52] = test system: UACC-257 melanoma
[53] = test system: UACC-62 melanoma
[54] = test system: UO-31 renal
[55] = test system: XF 498 CNS
[56] = test system: 786-0 renal
[57] = test system: ACHN renal
[58] = test system: BT-549 breast
[59] = test system: DMS 114 small cell lung
[60] = test system: DU-145 prostate
[61] = test system: HS 578T breast
[62] = test system: LXFL 529 NSCLC
[63] = test system: M14 melanoma
[64] = test system: MDA-MB-231 breast
[65] = test system: MDA-MB-435
[66] = test system: MOLT-4 leukemia
[67] = test system: PC-3 prostate
[68] = test system: RXF-631 renal
[69] = test system: SR leukemia
[70] = test system: T-47D breast
[71] = test system: TK-10 renal

Work on CCCCC1(C2c3ccccc3Oc3ccccc32)C(=O)N(c2ccccc2)N(c2ccccc2)C1=O yielded a TGI [1] of over 100 µM, a TGI [2] of over 100 µM and a TGI [3] of over 29.6 µM. It also gave a TGI [4] of over 100 µM, a TGI [5] of over 100 µM and a TGI [6] of over 100 µM. For the same molecule, the TGI [7] was over 100 µM, the TGI [8] was over 100 µM and the TGI [9] was over 94.5 µM. For the same molecule, the TGI [10] was over 100 µM, the TGI [11] was over 100 µM and the TGI [12] was over 100 µM. The TGI [13] was over 100 µM, the TGI [14] was over 100 µM and the TGI [15] was over 100 µM. For the same molecule, the TGI [16] was over 100 µM, the TGI [17] was over 100 µM and the TGI [18] was over 100 µM. The TGI [19] was over 100 µM, the TGI [20] was over 100 µM and the TGI [21] was over 100 µM. For the same molecule, the TGI [22] was over 100 µM, the TGI [23] was over 100 µM and the TGI [24] was over 100 µM. The TGI [25] was over 100 µM, the TGI [26] was over 100 µM and the TGI [27] was over 100 µM. For the same molecule, the TGI [28] was 13.1 µM, the TGI [29] was over 100 µM and the TGI [30] was over 100 µM. It also gave a TGI [31] of over 100 µM, a TGI [32] of over 100 µM and a TGI [33] of over 100 µM. For the same molecule, the TGI [34] was 45.2 µM, the TGI [35] was over 100 µM and the TGI [36] was over 100 µM. It also gave a TGI [37] of over 100 µM, a TGI [38] of over 100 µM and a TGI [39] of over 100 µM. The TGI [40] was over 100 µM, the TGI [41] was over 100 µM and the TGI [42] was over 100 µM. For the same molecule, the TGI [43] was over 100 µM, the TGI [44] was over 100 µM and the TGI [45] was over 100 µM. For the same molecule, the TGI [46] was over 100 µM, the TGI [47] was over 100 µM and the TGI [48] was over 100 µM. For the same molecule, the TGI [49] was over 88.5 µM, the TGI [50] was over 100 µM and the TGI [51] was over 100 µM. For the same molecule, the TGI [52] was 99 µM, the TGI [53] was over 100 µM and the TGI [54] was over 100 µM. The TGI [55] was over 100 µM.
Oc1ccc2c(c1)OCC1(O)Cc3cc(O)c(O)cc3C21 (configuration not stated) showed a TGI [56] of 34.9 µM, a TGI [1] of 39 µM and a TGI [2] of over 74.6 µM. For the same molecule, the TGI [57] was 32.7 µM, the GI50 [58] was 14.8 µM and the TGI [58] was 28 µM. For the same molecule, the TGI [3] was 32.8 µM, the TGI [4] was 82.8 µM and the TGI [5] was 45.4 µM. The TGI [6] was 33.9 µM, the TGI [59] was 73.5 µM and the TGI [7] was over 100 µM. The GI50 [60] was 10.7 µM, the TGI [60] was 22.5 µM and the TGI [8] was 45.9 µM. For the same molecule, the TGI [9] was 36 µM, the TGI [10] was 42.4 µM and the TGI [11] was 44.2 µM. It also gave a TGI [12] of 78.3 µM, a TGI [13] of 32.3 µM and a TGI [14] of over 73.6 µM. The TGI [15] was 37.6 µM, the GI50 [61] was 20.4 µM and the TGI [61] was 46.9 µM. For the same molecule, the TGI [16] was 46.5 µM, the TGI [17] was over 73.6 µM and the TGI [18] was over 82.6 µM. The TGI [19] was 69.2 µM, the TGI [20] was over 63 µM and the TGI [21] was 37.2 µM. The TGI [62] was 34 µM, the TGI [63] was 36.2 µM and the TGI [22] was over 86 µM. The TGI [23] was 32.4 µM, the GI50 [24] was 18.4 µM and the TGI [24] was 36 µM. The GI50 [64] was 13 µM, the TGI [64] was 26 µM and the GI50 [65] was 14.8 µM. It also gave a TGI [65] of 28.1 µM, a TGI [66] of 72.9 µM and a TGI [25] of over 65.2 µM. It also gave a TGI [26] of 33.4 µM, a TGI [27] of 37.2 µM and a TGI [28] of 46.7 µM. For the same molecule, the GI50 [29] was 29.6 µM, the TGI [29] was 97.9 µM and the TGI [30] was 30 µM. It also gave a TGI [31] of 35.3 µM, a TGI [32] of 59.7 µM and a TGI [33] of 44.2 µM. For the same molecule, the GI50 [67] was 18.1 µM, the TGI [67] was 39.4 µM and the TGI [36] was 85.1 µM. For the same molecule, the TGI [37] was 29.7 µM, the TGI [68] was over 77.3 µM and the TGI [38] was over 68.2 µM. The TGI [39] was over 68.3 µM, the TGI [40] was 36.8 µM and the TGI [41] was 62.2 µM. It also gave a TGI [42] of 32.2 µM, a TGI [43] of 34.2 µM and a TGI [44] of over 79.5 µM. The TGI [45] was 51.1 µM, the TGI [47] was 73 µM and the TGI [48] was 67.8 µM. The TGI [49] was 20 µM, the TGI [69] was 99.3 µM and the TGI [50] was 40.5 µM. The GI50 [70] was 19.6 µM, the TGI [70] was 54.4 µM and the TGI [71] was 31.2 µM. The TGI [51] was 39.9 µM, the TGI [52] was 34.4 µM and the TGI [53] was 41.9 µM. It also gave a TGI [54] of over 100 µM and a TGI [55] of 28.8 µM.
